Test results from ChEMBL document CHEMBL5523751, “Discovery of Novel Diaryl-Substituted Fused Heterocycles Targeting Katanin and Tubulin with Potent Antitumor and Antimultidrug Resistance Efficacy” (J Med Chem, 2024).

Assays:
[1] = tested on: MCF7; assay: Antiproliferative activity against human MCF7 cells assessed as inhibition of cell growth measured after 48 hrs by MTT assay; format: functional, cell-based; settings: MCF7, 48 h
[2] = tested on: SK-OV-3; assay: Antiproliferative activity against human SK-OV-3 cells assessed as inhibition of cell growth measured after 48 hrs by MTT assay; format: functional, cell-based; settings: SK-OV-3, 48 h
[3] = tested on: DU-145; assay: Antiproliferative activity against human DU-145 assessed as inhibition of cell growth measured after 48 hrs by MTT assay; format: functional, cell-based; settings: DU-145, 48 h
[4] = target: T1, Katanin p60 ATPase-containing subunit A1 (Homo sapiens, UniProt O75449); assay: Binding affinity to C-terminal human Katanin p60 (111 to 491 residues) expressed in Escherichia coli Rosetta (DE3) assessed as dissociation constant by SPR analysis
T1 sequence (O75449 whole entry, the tested form may be a part): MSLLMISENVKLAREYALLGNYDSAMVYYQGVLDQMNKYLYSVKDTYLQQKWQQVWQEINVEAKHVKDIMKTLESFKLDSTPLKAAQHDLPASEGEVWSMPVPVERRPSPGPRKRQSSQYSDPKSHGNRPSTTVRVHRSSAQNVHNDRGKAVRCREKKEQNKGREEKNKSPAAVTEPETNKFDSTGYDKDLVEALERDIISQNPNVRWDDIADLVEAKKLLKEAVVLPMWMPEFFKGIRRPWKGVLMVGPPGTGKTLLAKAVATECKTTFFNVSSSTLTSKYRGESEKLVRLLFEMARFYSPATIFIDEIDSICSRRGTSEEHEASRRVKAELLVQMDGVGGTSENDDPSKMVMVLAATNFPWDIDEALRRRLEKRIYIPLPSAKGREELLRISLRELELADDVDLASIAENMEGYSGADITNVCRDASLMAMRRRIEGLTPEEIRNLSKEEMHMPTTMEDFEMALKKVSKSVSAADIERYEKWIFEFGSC

[5] = tested on: MDA-MB-231; assay: Antiproliferative activity against human MDA-MB-231 cells assessed as inhibition of cell growth measured after 48 hrs by MTT assay; format: functional, cell-based; settings: MDA-MB-231, 48 h
[6] = tested on: HT-29; assay: Antiproliferative activity against human HT-29 cells assessed as inhibition of cell growth measured after 48 hrs by MTT assay; format: functional, cell-based; settings: HT-29, 48 h
[7] = tested on: PANC-1; assay: Antiproliferative activity against human PANC-1 assessed as inhibition of cell growth measured after 48 hrs by MTT assay; format: functional, cell-based; settings: PANC-1, 48 h
[8] = tested on: MDA-MB-468; assay: Antiproliferative activity against human MDA-MB-468 cells assessed as inhibition of cell growth measured after 48 hrs by MTT assay; format: functional, cell-based; settings: MDA-MB-468, 48 h
[9] = tested on: U-87 MG; assay: Antiproliferative activity against human U-87 MG assessed as inhibition of cell growth measured after 48 hrs by MTT assay; format: functional, cell-based, U-87MG ATCC
[10] = target: T1, Katanin p60 ATPase-containing subunit A1; assay: Binding affinity to N-terminal human Katanin p60 (8 to 229 residues) expressed in Escherichia coli Rosetta (DE3) assessed as dissociation constant by SPR analysis
[11] = Resistance index, ratio of IC50 for antiproliferative activity against human A549/Taxol cells to IC50 for antiproliferative activity against human A549 cells; format: functional

SMILES: COc1ccc(-c2cc3c(cn2)[nH]c(=O)n3-c2cc(OC)c(OC)c(OC)c2)cc1O
- IC50 [1]: 598 nM

SMILES: COc1ccc(-c2cc(C)c3ncn(-c4cc(OC)c(OC)c(OC)c4)c3n2)cc1O
- IC50 [1]: 32 nM

SMILES: COc1cc(-n2cnc3ccc(-c4ccc(C)cc4)nc32)cc(OC)c1OC
- IC50 [1]: 8 nM

SMILES: COc1ccc(-c2cc3c([nH]c(=O)n3-c3cc(OC)c(OC)c(OC)c3)c(C(N)=O)n2)cc1O
- IC50 [2]: 248 nM
- IC50 [3]: 2150 nM
- Kd [4]: > 50000 nM
- IC50 [5]: > 5000 nM
- IC50 [6]: > 5000 nM
- IC50 [7]: 1690 nM
- IC50 [1]: 813 nM
- IC50 [8]: 222 nM
- IC50 [9]: 558 nM
- Kd [10]: 9160 nM

SMILES: COc1cc(-n2cnc3c(OC)cc(-c4ccc(C)c(N)c4)cc32)cc(OC)c1OC
- IC50 [1]: 9 nM

SMILES: COc1cc(-n2cnc3ccc(Oc4ccc(C)c(N)c4)nc32)cc(OC)c1OC
- IC50 [1]: > 1000 nM

SMILES: COc1ccc(-c2ccc3[nH]c(=O)n(-c4cc(OC)c(OC)c(OC)c4)c3c2)cc1O
- IC50 [1]: 231 nM

SMILES: COc1ccc(-c2cc(N(C)C)c3[nH]c(=O)n(-c4cc(OC)c(OC)c(OC)c4)c3c2)cc1O
- IC50 [1]: > 1000 nM

SMILES: COc1cc(-n2cnc3ccc(-c4ccc(C)c(Cl)c4)nc32)cc(OC)c1OC
- IC50 [1]: 121 nM

SMILES: CC(=O)O[C@@]12CO[C@@H]1C[C@H](O)[C@@]1(C)C(=O)[C@H](O)C3=C(C)[C@@H](OC(=O)[C@H](O)[C@@H](NC(=O)OC(C)(C)C)c4ccccc4)C[C@@](O)([C@@H](OC(=O)c4ccccc4)[C@H]21)C3(C)C [DOCETAXEL ANHYDROUS]
- Ratio IC50 [11]: >10

SMILES: COc1cc(-n2cnc3c(OC)cc(-c4ccc(C)c(O)c4)cc32)cc(OC)c1OC
- IC50 [1]: 42 nM

SMILES: COc1ccc(-c2cc(OC)c3ncn(-c4cc(OC)c(OC)c(OC)c4)c3c2)cc1F
- IC50 [1]: 87 nM

SMILES: COc1ccc(-c2ccc3nnn(-c4cc(OC)c(OC)c(OC)c4)c3c2)cc1O
- IC50 [1]: 27 nM

SMILES: COc1ccc(-c2ccc3nc(C(F)(F)F)n(-c4cc(OC)c(OC)c(OC)c4)c3c2)cc1O
- IC50 [1]: > 1000 nM

SMILES: COc1ccc(-c2ccc3ncn(-c4cc(OC)c(OC)c(OC)c4)c3c2F)cc1O
- IC50 [1]: 24 nM

SMILES: COc1cc(-n2cnc3c(OC)cc(-c4ccc(N)c([N+](=O)[O-])c4)cc32)cc(OC)c1OC
- IC50 [1]: 256 nM

SMILES: COc1ccc(-c2cc3c(cc2F)ncn3-c2cc(OC)c(OC)c(OC)c2)cc1O
- IC50 [1]: 83 nM

SMILES: COc1cc(-n2cnc3ccc(-c4ccc(C)c(O)c4)nc32)cc(OC)c1OC
- Kd [4]: > 50000 nM
- IC50 [1]: 5 nM

SMILES: CCOc1ccc(-c2ccc3ncn(-c4cc(OC)c(OC)c(OC)c4)c3n2)cc1Cl
- IC50 [1]: > 1000 nM

SMILES: COc1ccc(-c2ccc3ncn(-c4cc(OC)c(OC)c(OC)c4)c3c2)cc1O
- IC50 [1]: 36 nM

SMILES: COc1ccc(C2C(CO)C(=O)N2c2cc(OC)c(OC)c(OC)c2)cc1O (configuration not stated)
- IC50 [1]: 12 nM

SMILES: COc1ccc(-c2cc(OC)c3ncn(-c4cc(OC)c(OC)c(OC)c4)c3c2)cc1O
- IC50 [1]: 24 nM
